The source of these data is patent publication US20140243210A1, “PURIFICATION OF IMMUNOGLOBULINS USING AFFINITY CHROMATOGRAPHY AND PEPTIDE LIGANDS” (priority 2005, published 2014).

One assay deals with intact HIgG. Description: Secondary screening, batch format, competitive and non-competitive modes. It is filed as binding, human. The note with it: for Competitive condition, Bound / Competitive condition, Unbound / Non-competitive, Bound / Non-competitive, Unbound: second round; for Competitive condition, Bound / Competitive condition, Unbound: HIgG in MEM, radiolabel extent 2.9%; for Non-competitive, Bound / Non-competitive, Unbound: HIgG in PBS; for Bound %, HIgG, Competitive / Bound %, HIgG, Non-competitive (Micro-BCA): first round; for Bound %, HIgG, Competitive: 14C-HIgG 1 μM spiked in MEM (10% FCS, 5% TPB), radiolabel extent 3.6%; for Bound %, HIgG, Non-competitive (Micro-BCA): pure HIgG 1 μM in PBS.

A further assay concerns IgG. The following applies: cited from earlier work.
The test system of another assay is HIgG. Description: Adsorption isotherm measurements, Langmuir model. It counts as binding, human.
The test system of assay [1] is Fc fragment of human IgG (HIgG). Description: Secondary screening, batch format, competitive and non-competitive modes. It is filed as binding. The note with it: first round; for Bound %, Fc fragment, Non-competitive: 14C-Fc 1 μM in PBS; for Bound %, Fc fragment, Competitive: 14C-Fc 1 μM spiked in MEM (10% FCS, 5% TPB).
Method: (§1) The batch format was used in both competitive and non-competitive modes. The non-competitive mode involved screening using only pure target proteins in PBS buffer. For the competitive mode, target proteins were spiked into mammalian culture medium MEM (Minimum Essential Medium) containing 10% fetal calf serum (FCS) and 5% tryptose phosphate broth (TPB).
(§2) Two target proteins, the Fc fragment of human IgG (HIgG) and intact HIgG, were applied at a concentration of 1 μM. To carry out the secondary screening, 20 mg of the re-synthesized resins were swelled with 20% methanol for one hour, then washed thoroughly and equilibrated with PBS buffer. The beads were incubated with 400 μl of 1 μM 14C-Fc or 14C-IgG in the corresponding solutions in a 0.5 ml centrifuge filter with a 0.45 μm Durapore membrane (Millipore, Milford, Mass.) on a rotating plate for two hours. The particles were washed with PBS buffer for 15 min, and then sequentially washed for one hour each with 400 of: 1 M NaCl in PBS, then 2% acetic acid (AcOH) and 6 M guanidine chloride (GdnHCl). After centrifugation each solution was collected into scintillation fluid for radioactivity counting. The total unbound protein was determined by combining the counts of unbound protein and the wash of PBS. Finally, resins were suspended in scintillation liquid and counted for radioactivity in the same manner, allowing a total radioactivity balance.
Setting [2] is: Table 6, direct Langmuir fit, 0.1 meq/g, PBS pH 7.4.
The mark [3] stands for this setting: substitution 0.080 mmol/g, read-out: Kd.
The mark [4] stands for this setting: direct Langmuir fit, PBS pH 7.4, room temperature, peptides 0.1 meq/g, read-out: Kd, Langmuir.
Where [5] appears, read: direct Langmuir fit, PBS pH 7.4, peptides 0.1 meq/g.
[6] abbreviates: double reciprocal curve, PBS pH 7.4, room temperature, peptides 0.1 meq/g, read-out: Kd, DR curve.
The mark [7] stands for this setting: double reciprocal curve, PBS pH 7.4, peptides 0.1 meq/g.

Where “and” joins values, the source holds several entries; their conditions need not be identical. Equal values may be shown once. Read-outs that look alike come from different tables or passages of the source. No end group written: not given here.

As usually defined, the Kd is the free concentration of one partner at which half of the binding sites on the other are occupied at equilibrium, for simple one-to-one binding.

Method for intact HIgG: as §1, §2

Turning to “HLKWYA (not fully specified (C-terminus)) [hexapeptide ligand on Toyopearl resin]”, in the assay with intact HIgG, the “Competitive condition, Bound” value is 23.47% and the “Competitive condition, Unbound” value is listed as 76.53%.

With “Protein A: protein A immobilized by the CNBr method to 4% cross-linked agarose beads (Amersham Biosciences); positive control [reference compound]”, in the assay on IgG (4% cross-link agarose), the Capacity was 20 mg/ml mg/ml moist gel.

Consider “HVWQLK (not fully specified (C-terminus)) [hexapeptide ligand on Toyopearl resin]”, for which, in the assay with intact HIgG, the “Competitive condition, Bound” value came to 15.05% and the “Competitive condition, Unbound” value is listed as 84.95%.

On to “HYFKFD [hexapeptide ligand on Toyopearl resin, 0.1 meq/g]”, for which, in the assay on intact HIgG, the “Competitive condition, Unbound” value is given as 56.74%; the “Non-competitive, Bound” value came to 69.31%; the “Non-competitive, Unbound” value stood at 30.69%. Further, the qm in the assay on HIgG (setting [2]) came to 126.8 mg/g. In addition, the Kd on HIgG (Table 6, direct Langmuir fit, 0.1 meq/g, PBS pH 7.4, read-out: Kd) is 11.4 µM.

Turning to “HEILYW (not fully specified (C-terminus)) [hexapeptide ligand on Toyopearl resin]”, in assay [1], the “Bound %, Fc fragment, Non-competitive” value turned out to be 18.01% and the “Bound %, Fc fragment, Competitive” value was 3.20%. Besides, in the assay with intact HIgG, the “Bound %, HIgG, Competitive” value is on record as 5.50% and the “Bound %, HIgG, Non-competitive (Micro-BCA)” value stood at 9.16%.

For “HFDKGF (not fully specified (C-terminus)) [hexapeptide ligand on Toyopearl resin]”, in assay [1], the “Bound %, Fc fragment, Non-competitive” value was found to be 12.95% and the “Bound %, Fc fragment, Competitive” value came to 4.28%. Besides, in the assay on intact HIgG, the “Bound %, HIgG, Competitive” value turned out to be 6.01% and the “Bound %, HIgG, Non-competitive (Micro-BCA)” value is 10.66%.

Consider “HDVFHT (not fully specified (C-terminus)) [hexapeptide ligand on Toyopearl resin]”, for which, in the assay on intact HIgG, the “Competitive condition, Bound” value turned out to be 8.55% and the “Competitive condition, Unbound” value turned out to be 91.45%.

Consider “KLQWVH (Immunoglobulin binding peptide sequence) [from KLQMVX, with the substitution of M with W and X with H]”, for which, in the assay on intact HIgG, the “Competitive condition, Bound” value was found to be 12.15% and the “Competitive condition, Unbound” value is reported as 87.85%.

On to “HWRGWV [Ac-HWRGWV, acetylated HWRGWV on resin, 0.080 mmol/g]”, for which the qm in the assay with HIgG (substitution 0.080 mmol/g) was 130 mg/g and 130.8 mg/g. The dissociation constant Kd on HIgG (setting [3]) came out at 3.8 µM.

In the case of (RTY)4K2KG [TG19318 (PAM)], the Capacity in the assay on IgG (Epoxy-activated Eupergit C30N support) is 25 mg/ml mg/ml gel.

As for “HVHYYW [hexapeptide ligand on Toyopearl resin, 0.1 meq/g]”, in the assay on intact HIgG, the “Competitive condition, Unbound” value came out at 56.73%; the “Non-competitive, Bound” value stood at 55.49%; the “Non-competitive, Unbound” value was 44.51%. The substance further yielded a qm with HIgG (setting [2]) of 129.0 mg/g.

On to WHWRKR [reference compound], for which the Kd stood at 1.39 µM at HIgG (setting [4]) and 2.47 µM at HIgG (setting [6]). Besides, the “qm, Langmuir” value with HIgG (setting [5]) turned out to be 62.4 mg/g. Also, the “qm, DR curve” value in the assay on HIgG (setting [7]) is given as 81.9 mg/g.

As to “EPIHRSTLTALL (not fully specified) [literature peptide ligand on Amino-NuGel (Hoffman LaRoche)]”, the Capacity in the assay with IgG (Amino-NuGel support, IgG source culture) is 320 μg/g μg/g gel.

For “HWGPTK (not fully specified (C-terminus)) [hexapeptide ligand on Toyopearl resin]”, in the assay on intact HIgG, the “Competitive condition, Bound” value is reported as 19.93%; the “Competitive condition, Unbound” value is reported as 80.07%; the “Non-competitive, Bound” value stood at 14.39%; the “Non-competitive, Unbound” value turned out to be 85.61%.

Turning to HRPKIF [HRPLIF], in assay [1], the “Bound %, Fc fragment, Non-competitive” value worked out at 21.46% and the “Bound %, Fc fragment, Competitive” value is recorded as 24.48%. Further, in the assay with intact HIgG, the “Bound %, HIgG, Competitive” value is 4.51% and the “Bound %, HIgG, Non-competitive (Micro-BCA)” value came to 11.20%.

“HYIDAK (not fully specified (C-terminus)) [hexapeptide ligand on Toyopearl resin]”: in the assay on intact HIgG, the “Competitive condition, Bound” value is 8.64% and the “Competitive condition, Unbound” value turned out to be 91.36%.

Turning to KGEA (not fully specified (C-terminus)), in the assay on intact HIgG, the “Competitive condition, Bound” value worked out at 7.34%; the “Competitive condition, Unbound” value stood at 92.66%; the “Non-competitive, Bound” value is given as 6.08%; the “Non-competitive, Unbound” value is listed as 93.92%.

For “truncation of the subunit GFRKYLHFRRHLL of a multiple antigenic peptide (MAP) (Immunoglobulin binding peptide sequence)”, the “Competitive condition, Unbound” value in the assay with intact HIgG worked out at 59.13%. This substance had a qm in the assay with HIgG (setting [2]) of 157.9 mg/g.

For HIWA (not fully specified (C-terminus)), in the assay on intact HIgG, the “Competitive condition, Bound” value was found to be 12.87%; the “Competitive condition, Unbound” value came out at 87.13%; the “Non-competitive, Bound” value was found to be 7.90%; the “Non-competitive, Unbound” value worked out at 92.10%.

Regarding “HIQLDG (not fully specified (C-terminus)) [hexapeptide ligand on Toyopearl resin]”, in the assay on intact HIgG, the “Competitive condition, Bound” value is reported as 10.03% and the “Competitive condition, Unbound” value was 89.97%.

For the substance “HANGFL (not fully specified (C-terminus)) [hexapeptide ligand on Toyopearl resin]”, in assay [1], the “Bound %, Fc fragment, Non-competitive” value is reported as 10.23% and the “Bound %, Fc fragment, Competitive” value is reported as 25.64%. Further, in the assay with intact HIgG, the “Bound %, HIgG, Competitive” value is recorded as 5.58% and the “Bound %, HIgG, Non-competitive (Micro-BCA)” value came out at 10.52%.

For the substance “HPWYVT (not fully specified (C-terminus)) [hexapeptide ligand on Toyopearl resin]”, in the assay on intact HIgG, the “Competitive condition, Bound” value is 26.96% and the “Competitive condition, Unbound” value stood at 73.04%.

For the substance Mannosylerythritol lipid, in the assay with IgG (Poly(2-hydroxyethyl methacrylate) support), the Capacity is listed as 106 mg/g mg/g gel.

In the case of “HYGLGW (not fully specified (C-terminus)) [hexapeptide ligand on Toyopearl resin]”, in assay [1], the “Bound %, Fc fragment, Non-competitive” value is 19.75% and the “Bound %, Fc fragment, Competitive” value was determined as 4.91%. In the assay on intact HIgG, the “Bound %, HIgG, Competitive” value was 14.48% and the “Bound %, HIgG, Non-competitive (Micro-BCA)” value was 17.89%.

On to “HWRGWV [hexapeptide ligand on Toyopearl AF-amino-650 M resin; 0.1 meq/g unless another substitution is stated]”, for which the Kd on HIgG (setting [4]) is 1.33 µM; at HIgG (setting [6]), 2.8 µM; on HIgG (substitution 0.022 mmol/g, read-out: Kd) it was 30 µM; on HIgG (substitution 0.040 mmol/g, read-out: Kd), 20.3 µM; at HIgG (setting [3]), 7.25 µM; on HIgG (substitution 0.10 mmol/g (different synthesis batch), read-out: Kd) it was 10.4 µM. In addition, the Kd at HIgG (substitution 0.22 mmol/g, read-out: Kd) was found to be 2.58 µM; at HIgG (substitution 0.55 mmol/g, read-out: Kd), 0.947 µM. Moreover, the “qm, Langmuir” value in the assay with HIgG (setting [5]) is listed as 50.0 mg/g. The “qm, DR curve” value in the assay on HIgG (setting [7]) was 54.8 mg/g. Also, the qm is 158.1 mg/g in the assay with HIgG (substitution 0.022 mmol/g); 147.8 mg/g in the assay on HIgG (substitution 0.040 mmol/g); 130 mg/g and 131.8 mg/g in the assay on HIgG (substitution 0.080 mmol/g); 133.6 mg/g with HIgG (substitution 0.10 mmol/g (different synthesis batch)); 136.8 mg/g in the assay with HIgG (substitution 0.22 mmol/g); 137.6 mg/g with HIgG (substitution 0.55 mmol/g).

Turning to “KRGFYY (Immunoglobulin binding peptide sequence) [combination of KRXXXX, KXXGX and aromatic amino acids F and YY]”, in the assay on intact HIgG, the “Competitive condition, Bound” value was 17.27% and the “Competitive condition, Unbound” value stood at 82.73%.

For “HWIDPL (not fully specified (C-terminus)) [hexapeptide ligand on Toyopearl resin]”, in the assay on intact HIgG, the “Competitive condition, Bound” value amounted to 19.91%; the “Competitive condition, Unbound” value was determined as 80.09%; the “Non-competitive, Bound” value came out at 9.03%; the “Non-competitive, Unbound” value was 90.97%.
